“Also recorded” adds a separate entry of the source.
Tests used:
[1] = system: T1, myc-tagged catalytically inactive (KI: K46I) ULK1
T1 sequence: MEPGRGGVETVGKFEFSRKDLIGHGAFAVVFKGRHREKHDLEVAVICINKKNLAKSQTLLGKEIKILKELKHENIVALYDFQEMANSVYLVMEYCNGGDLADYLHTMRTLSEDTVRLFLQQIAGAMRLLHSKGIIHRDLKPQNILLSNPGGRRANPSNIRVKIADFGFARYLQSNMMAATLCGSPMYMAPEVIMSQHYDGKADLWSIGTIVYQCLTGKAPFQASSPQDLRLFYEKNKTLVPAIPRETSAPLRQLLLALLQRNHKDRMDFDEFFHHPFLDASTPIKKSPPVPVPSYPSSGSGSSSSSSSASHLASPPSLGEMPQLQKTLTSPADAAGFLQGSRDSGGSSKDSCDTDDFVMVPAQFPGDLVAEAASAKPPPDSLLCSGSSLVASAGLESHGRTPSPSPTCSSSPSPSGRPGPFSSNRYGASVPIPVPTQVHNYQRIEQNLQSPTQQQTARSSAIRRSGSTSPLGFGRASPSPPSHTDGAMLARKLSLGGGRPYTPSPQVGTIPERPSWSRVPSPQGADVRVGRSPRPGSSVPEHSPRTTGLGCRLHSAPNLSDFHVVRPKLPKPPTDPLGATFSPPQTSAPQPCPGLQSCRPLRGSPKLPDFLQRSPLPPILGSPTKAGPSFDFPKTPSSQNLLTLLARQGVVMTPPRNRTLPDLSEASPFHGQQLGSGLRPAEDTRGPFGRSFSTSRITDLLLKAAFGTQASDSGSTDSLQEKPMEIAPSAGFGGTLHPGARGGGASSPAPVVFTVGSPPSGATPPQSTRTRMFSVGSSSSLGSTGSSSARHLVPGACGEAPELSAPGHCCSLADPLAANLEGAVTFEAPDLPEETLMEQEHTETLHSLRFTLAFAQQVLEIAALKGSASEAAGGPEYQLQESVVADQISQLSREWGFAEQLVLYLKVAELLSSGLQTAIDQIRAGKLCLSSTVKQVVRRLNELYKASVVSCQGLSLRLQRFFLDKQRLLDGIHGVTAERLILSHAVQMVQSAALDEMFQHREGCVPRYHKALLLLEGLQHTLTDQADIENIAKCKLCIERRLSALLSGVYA

[2] = target: myc-tagged wild-type raptor (UniProt Q8N122)
Chain of myc-tagged wild-type raptor (Q8N122 whole entry, looked up): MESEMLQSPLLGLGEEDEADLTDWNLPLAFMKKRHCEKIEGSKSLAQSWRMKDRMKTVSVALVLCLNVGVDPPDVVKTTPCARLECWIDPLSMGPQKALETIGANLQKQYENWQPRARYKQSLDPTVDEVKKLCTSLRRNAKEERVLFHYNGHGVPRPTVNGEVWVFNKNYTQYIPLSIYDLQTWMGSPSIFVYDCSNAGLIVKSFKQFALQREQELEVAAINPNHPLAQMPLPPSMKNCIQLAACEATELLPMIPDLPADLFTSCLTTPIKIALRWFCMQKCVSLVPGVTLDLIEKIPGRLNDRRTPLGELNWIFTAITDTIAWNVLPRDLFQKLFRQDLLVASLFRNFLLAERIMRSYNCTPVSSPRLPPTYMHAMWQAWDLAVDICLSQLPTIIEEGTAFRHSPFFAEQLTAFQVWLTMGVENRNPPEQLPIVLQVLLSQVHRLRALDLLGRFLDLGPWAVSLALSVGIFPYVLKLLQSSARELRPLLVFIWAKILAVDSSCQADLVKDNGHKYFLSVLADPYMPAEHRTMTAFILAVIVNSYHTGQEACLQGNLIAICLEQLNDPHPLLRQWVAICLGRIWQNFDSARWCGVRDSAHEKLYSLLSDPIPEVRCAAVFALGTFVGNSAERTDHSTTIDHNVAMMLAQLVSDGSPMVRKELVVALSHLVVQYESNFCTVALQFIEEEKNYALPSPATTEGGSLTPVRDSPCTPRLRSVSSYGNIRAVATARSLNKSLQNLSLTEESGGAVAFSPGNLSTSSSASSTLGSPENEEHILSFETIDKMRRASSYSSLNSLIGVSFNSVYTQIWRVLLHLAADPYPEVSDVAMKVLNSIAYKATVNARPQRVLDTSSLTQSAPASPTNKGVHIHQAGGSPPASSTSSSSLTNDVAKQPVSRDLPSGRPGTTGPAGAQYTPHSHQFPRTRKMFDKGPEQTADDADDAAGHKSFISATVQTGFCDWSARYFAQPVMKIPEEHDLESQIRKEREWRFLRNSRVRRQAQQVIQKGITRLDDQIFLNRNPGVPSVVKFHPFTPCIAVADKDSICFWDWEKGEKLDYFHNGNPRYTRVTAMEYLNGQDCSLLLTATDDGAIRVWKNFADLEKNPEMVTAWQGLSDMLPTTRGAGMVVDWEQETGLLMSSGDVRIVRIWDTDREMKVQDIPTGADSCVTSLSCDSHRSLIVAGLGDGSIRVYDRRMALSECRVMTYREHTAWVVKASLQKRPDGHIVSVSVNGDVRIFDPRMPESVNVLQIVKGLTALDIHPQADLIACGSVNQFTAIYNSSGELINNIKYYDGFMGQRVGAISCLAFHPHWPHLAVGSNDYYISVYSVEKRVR

ULK1 [3] = assay: Tandem mass spectrometry (LC/MS/MS) of phosphorylation sites on myc-ULK1 from HEK293T cells; type: cell-based, human
Procedure: FIG. 7A is a diagram of all LC/MS/MS identified in vivo phosphorylation sites in human ULK1. Myc-ULK1 was transfected into human embryonic kidney (HEK)-293T cells, treated with 5 mM phenformin to reduce cellular ATP for 1 hour and immunoprecipitated with anti myc antibody. The IP was run out on SDS PAGE, stained with coomassie, and the band corresponding to myc-ULK1 was cut out, and isolated and subjected to tryptic digest and LC/MS/MS analysis. Three indicated sites matching the AMPK substrate motif were identified, all mapping to the serine-rich unstructured region between the N-terminal kinase domain and the conserved C-terminus that mediates ULK1 binding to its subunits Atg13 and FIP200.
FIG. 7B is a bar graph of quantitative mass spec spectrometry (MS/MS TIC ratio quantification) data showing that tryptic peptides containing Phospho5er555 and Phospho-5er637 of ULK1 are induced by treatment of HEK293T cells with 5 mM phenformin for 1 h.
Mass Spectrometry. Myc-ULK1 overexpressed in HEK293T cells was treated with vehicle or 5 mM phenformin for 1 hour, IP'd with anti myc antibody (Cell Signaling), run out on SDS-PAGE gel and coomassie stained. […] Peptide ions from AMPK predicted phosphorylation sites were also targeted in MS/MS mode for quantitative analyses. […]
Relative Quantification of Phosphorylation Sites. […]

ULK1 [4] = assay: Immunoblot with phospho-specific antibodies against ULK1 Ser467 and Ser555 in transfected HEK293T cells; type: cell-based, human; conditions: HEK293T cells with myc-tagged ULK1, 1 mM phenformin for 1 h vs vehicle
Procedure: FIGS. 1A-1F show ULK1 is a conserved substrate of AMPK. (A) Clustal alignment of four conserved sites in ULK1 and two sites in ULK2 matching the optimal AMPK substrate motif. (B) ULK1 and GST or GST-14-3-3 expression vectors were transfected into human embryonic kidney (HEK)293T cells, and placed in media containing […] STO-609 (STO), vehicle (veh), or 5 mM phenformin (Phen) for 1 h. Cell lysates and GST pulldowns were immunoblotted as indicated. […] (D) HEK293T cells transfected with myc-tagged wild-type ULK1 or indicated Serine-to-alanine ULK1 mutants were treated with either vehicle or 1 mM phenformin for 1 h, or were co-transfected with a constitutively active AMPKα1 (aa1-312) mammalian expression vector (11). Proteins from lysates were immunoblotted with phospho-specific antibodies as indicated. […] Phosphorylation of myc-ULK1 detected by immunoblotting with indicated phospho-specific antibodies. […]
Cell lysis, immunoprecipitations, and mammalian autophagy analysis. […] Immunoprecipitated proteins were denatured by the addition of […] of sample buffer and boiling for 5 minutes, resolved by 8%-16% SDSPAGE, and analyzed by immunoblottina as described. […] Quantification of westerns blots was achieved using Kodak Multi Gage software and normalizing to the appropriate loading control (actin when comparing p62 or LC3, or total protein level when comparing phospho-specific antibodies). […]

endogenous ULK1 [5] = assay: Immunoblot of endogenous ULK1 Ser555 phosphorylation in primary murine hepatocytes; type: cell-based; conditions: wild-type vs AMPK-deficient, 2 mM metformin for 2 h
Procedure: Data shown as mean+/−SEM. * p<0.01 (B) Primary hepatocytes derived from ULK1^+/+ or ULK1^+/− mice or AMPKa1^−/− a2^L/+ or AMPKa1^−/− a2^L/L as described in methods were placed in media containing 2 mM metformin (met) or vehicle (veh) for 2 h. Lysates were immunoblotted with the indicated antibodies.
Primary hepatocytes were isolated. Briefly, livers were perfused with Hank's balanced salt solution (HESS, KCI, 5.4 mM; KH2PO4, 0.45 mM; NaCl, 138 mM; NaHCO2, 4.2 mM; Na2HPO4, 0.34 mM; glucose, 5.5 mM; HEPES, 1 M; EGTA, 50 mM; CaCl2, 50 mM; pH 7.4). Livers were washed at a rate of 5 ml/min using the portal vein before collagenase (0.025%) was added. Cell viability was assessed by the trypan blue exclusion test and was always higher than 60%. […]
Cell lysis, immunoprecipitations, and mammalian autophagy analysis. […] Immunoprecipitated proteins were denatured by the addition of 20 pl of sample buffer and boiling for 5 minutes, resolved by 8%-16% SDSPAGE, and analyzed by immunoblottina as described. […] Quantification of westerns blots was achieved using Kodak Multi Gage software and normalizing to the appropriate loading control (actin when comparing p62 or LC3, or total protein level when comparing phospho-specific antibodies). […]

endogenous ULK1 [6] = assay: Immunoblot of endogenous ULK1 P-Ser555 in primary murine embryonic fibroblasts (MEFs); type: cell-based; conditions: wild-type vs AMPK-deficient, 2 mM AICAR for 1 h

Compound: purified active AMPK heterotrimer (partially purified rat liver, Millipore cat #14-305)
- in vitro kinase assay, 32P incorporation [1]: AMPK phosphorylated ULK1 to a greater extent than an established substrate, Raptor
- in vitro kinase assay, 32P incorporation [2]: AMPK phosphorylated ULK1 to a greater extent than an established substrate, Raptor

Compound: [H]/N=C(/N)N/C(=N/[H])NCCc1ccccc1 [phenformin]
- tryptic peptides containing Phospho-Ser555 and Phospho-Ser637 of ULK1, quantitative mass spectrometry (MS/MS TIC ratio quantification) (ULK1 [3]; 5 mM phenformin for 1 h): induced
- phosphorylation of ULK1 candidate AMPK sites Ser555, Thr574, Ser637 detected by tandem mass spectrometry (ULK1 [3]; epitope-tagged ULK1, with or without 5 mM phenformin for 1 hour): all three were phosphorylated only after phenformin treatment
- phosphorylation of ULK1 Ser467 and Ser555 (phospho-specific antibodies) (ULK1 [4]): Phosphorylation of both sites was induced

Compound: CN(C)C(=N)N=C(N)N [metformin]
- phosphorylation of endogenous ULK1 Ser555 (endogenous ULK1 [5]): Increased phosphorylation of endogenous ULK1 Ser555 was observed in wild-type but not AMPK-deficient hepatocytes

Compound: NC(=O)c1ncn([C@@H]2O[C@H](CO)[C@@H](O)[C@H]2O)c1N [AICAR]
- phosphorylation of endogenous ULK1 on Ser555 (endogenous ULK1 [6]): phosphorylation of endogenous ULK1 was observed on Ser555 in an AMPK-dependent manner; also recorded: phosphorylated on Ser555 in an AMPK-dependent manner

Reference: US20160289651A1, “ULK1 COMPOSITIONS, INHIBITORS, SCREENING AND METHODS OF USE” (Salk Institute for Biological Studies, priority 2009, published 2016)
